Consider two molecules from patent US8440849B2, “Use of nitroaniline derivatives for the production of nitric oxide” (STMicroelectronics S.r.l., priority 2006, dated 2013).

This assay can be described thus: NO photo-release, fluorimetric DAN (2,3-diaminonaphthalene) assay measuring nitrite levels. The following applies: for NO release after irradiation (presence of nitrites, fluorescent spectrum): 350 nm, 8 lamps. The source says:
It allows the indirect determination of NO by measuring nitrite levels. In particular, NO is an highly reactive gas that, in the presence of water, forms an equimolar mixture of nitrites and nitrates. Nitrites, reacting with a DAN (2,3-diaminonaphtalene) solution in the presence of an acid, form 1-naphthotriazole, a highly fluorescent compound having a characteristic UV absorbance.
Therefore, the solution of 4-nitro-3-(trifluoromethyl)aniline in methanol after irradiation was dried and then the recovered 4-nitro-3-(trifluoromethyl)aniline was re-dissolved with water and phosphate buffer 0.1 M (pH 7.4). 150 μl of a DAN solution were added to the solution of 4-nitro-3-(trifluoromethyl)aniline heating at 50° C. for 40 minutes. Subsequently, 150 μl of concentrated NaOH was added in order to obtain naphthotriazole ions according to the scheme below.
300 μl of a DAN saturated solution in HCl 0.6 M were added to 3 ml of the irradiated solution of 10-(3-(trifluoromethyl)-4-Nitrophenylamino)decan-1-thiol followed by heating at 50° C. for 20 minutes.
Subsequently, 1 ml of NaOH was added to 1 ml of the solution in order to obtain naphthotriazole ions.
The NO photo-release of the nanoparticles functionalized with 1043-(trifluoromethyl)-4-Nitrophenylamino)decan-1-thiol was measured using fluorimetric assay based on 2,3-diaminonaphthalene (DAN) [T. P. Misko, R. J. Schilling, D. Salvemini, W. M. Moore, M. G. Currie, Anal. […]], as shown in Examples 1 and 2 (FIG. 8).

SMILES strings stand for the structures.

Consider `Nc1ccc([N+](=O)[O-])c(C(F)(F)F)c1` [4-nitro-3-(trifluoromethyl)aniline], for which the “NO release after irradiation (presence of nitrites, fluorescent spectrum)” value (methanol solution, 2 hours, DAN, phosphate buffer pH 7.4, FIG. 4) is “formation of NO”.

Take `O=[N+]([O-])c1ccc(NCCCCCCCCCCS)cc1C(F)(F)F` [10-(3-(trifluoromethyl)-4-Nitrophenylamino)decan-1-thiol]: the “NO release after irradiation (presence of nitrites, fluorescent spectrum)” value (CH3OH:H2O (10%) solution, 35 minutes, DAN in HCl 0.6 M, FIG. 6) was “formation of NO”. Also, the “NO photo-release profile (trend of the curve)” value (fluorimetric DAN assay, FIG. 8) was “linear behavior”.
